In the assay the test system is bone cells (line UMR 106 or G 292). The assay can be described thus: fixation of calcium in the extra cellular matrix of cultured bone cells (atomic spectrophotometry). The class given is cell-based. Conditions: for amount of fixed calcium in the extra cellular matrix of the osteoblasts: cells treated with 10 µg of calcium inhibitor, same conditions. On the procedure:
In the same conditions the cells are treated with 10 µg Verapamil or any other inhibitor of the calcium such as Cinchonine or Diltiazem.

As to “2-oxo 3-hydroxy 25-ethylidene A-nor cholest-3-ene [Maltadiolone]”, the fixed calcium result (10 ng of Maltadiolone, in comparison with the untreated control cells, line UMR 106 or G 292) was “increase in the fixed calcium”. Further, the “fixative activity on the calcium” value (cells treated with both 1 μg IL-1 and 10 μg Maltadiolone) is listed as “restore a fixative activity on the calcium, equivalent to that of cells untreated with a calcium inhibitor”. The “concentration from which recovery of the fixation of calcium on the extra cellular matrix may be detected” value (same conditions as previously (IL-1 treated cells)) was at least 10 ng/mL. Consider `C=C[C@H]1C[N@@]2CC[C@H]1C[C@@H]2[C@@H](O)c1ccnc2ccccc12` [Cinchonine], for which the “amount of fixed calcium in the extra cellular matrix of the osteoblasts” value is “equivalent to that of the cells treated with interleukin”.

On to `COc1ccc([C@@H]2Sc3ccccc3N(CCN(C)C)C(=O)[C@@H]2OC(C)=O)cc1` [Diltiazem], for which the “amount of fixed calcium in the extra cellular matrix of the osteoblasts” value was “equivalent to that of the cells treated with interleukin”. Same read-out and setting: the entry for `COc1ccc(CCN(C)CCCC(C#N)(c2ccc(OC)c(OC)c2)C(C)C)cc1OC` (stereo not drawn) [Verapamil] is “equivalent to that of the cells treated with interleukin”.

For the origin of these results see US7186756B2, “Steroid derivatives and use thereof as medicaments” (Inovat, priority 2003, dated 2007).
